How the values were obtained:
[1] = tested on: human pancreas cancer cell line CAPAN-1; assay: Test Example 6: antitumor evaluation in tumor model animal (CAPAN-1 Xenografts); type: in vivo, nude mouse; details: 50 μg per mouse orally five times a week; one month; FIG. 4
Method: (§1) The model animal of a tumor was made by seeding human pancreas cancer cell line CAPAN-1 or PSN-1 in subcutis of back of a nude mouse (BALB-cAJnu/nu; CLEA Japan, Inc.) as a donor and transplanting the tumor mass of the provided donor mouse into subcutis of back of a recipient mouse, Arctigenin (AG), arctiin (A) and the burdock fruit extract (Example 12) were dissolved in DMSO in concentration of 10 mg/ml, diluted with a saline, and then administered orally in stomach at 50 μg per one mouse five times a week. The anticancerous was evaluated by measuring the size of the subcutaneous tumor mass of the back with time.

[2] = tested on: human pancreas cancer cell line PSN-1; assay: Test Example 6: antitumor evaluation in tumor model animal (PSN-1 Xenografts); type: in vivo, nude mouse; details: 50 μg per mouse orally five times a week; one month; FIG. 5
Method: as §1

[3] = tested on: pancreas cancer cell PANC-1; assay: Test Example 8: PI staining (dead cell staining), FACS; type: cell-based, human; details: 3 μM arctigenin
Method: (§2) For preparation of the glucose-containing medium, 4.75 g of Dulbecco's modified Eagle medium 2 (Nissui Pharmaceutical) was dissolved in water, added by 12.5 ml of 1M HEPES pH 7.4 (DOJINDO LABORATORIES, 342-01375), sterilized, added by 18.5 ml of 10% NAHCO3, 10 ml of L-glutamine (Sigma-Aldrich), 5 ml of Anti-Anti (Life technologies), 5 ml of MEM NON-ESSENTIAL AMINO ACID SOLUTION (Sigma-Aldrich) and 50 ml of FETAL BOVINE SERUM (Biowest) that was inactivated in a warm bath at 56° C. for 30 minutes, and finally filled up to 500 ml. The glucose inhibition medium was prepared by adding 2-Deoxy-Glucose (2-DG) (Tokyo Chemical Industry) in 20 mM of final concentration to the glucose-containing medium. The medium containing 3 μM arctigenin was prepared by adding arctigenin ([…] Pharmaceutical) in 3 μM of final concentration to the glucose-containing medium or the glucose inhibition medium. For preparation of FACS buffer, 10 g of Bovine serum albumin Protease free (Wako Pure Chemical industries) was dissolved in 1 L of PBS (-), added by sodium azide in 0.1% of final concentration and performed filtration sterilization. The pancreas cancer cell PANC-1 (ATCC No CRL-1469 was seeded in a glucose-containing medium, incubated overnight and then incubated in each of the glucose-containing medium, the glucose inhibition medium, the glucose-containing medium containing 3 μM arctigenin and the glucose inhibition medium containing 3 μM arctigenin for 24 hours. After collected cells, PI staining (dead cell staining) and cancer stem cell marker staining were carried out according to the usual method and an Analysis was carried out using flow cytometry (FACS). For a marker, triple positive of CD44, CD24 and ESA (CD326) or double positive of CD44 positive and c-Met strong positive which were reported as a stem cell marker of pancreas cancer were used.

[4] = tested on: CD44+ESA+CD24+ pancreas cancer stem cell (PANC-1); assay: Test Example 8: cancer stem cell marker staining (CD44, CD24, ESA), FACS; type: cell-based, human; details: 3 μM arctigenin
Method: as §2, with “sterilization. For the fluorescence-labeled antibody for FACS assays, CD44 (338803 or 338807, BioLegend), CD24 (311117, BioLegend), ESA (324205, BioLegend) and c-[…]-8858, eBioscience) were used. In addition, a staining step was carried out according to the attached data sheet to the product.” for “sterilization.”

[5] = tested on: CD44+,c-MetHigh pancreas cancer stem cell (PANC-1); assay: Test Example 8: cancer stem cell marker staining (CD44, c-Met), FACS; type: cell-based, human; details: 3 μM arctigenin
Method: as §2, with “sterilization. For the fluorescence-labeled antibody for FACS assays, CD44 (338803 or 338807, BioLegend), CD24 (311117, BioLegend), ESA (324205, BioLegend) and c-[…]-8858, eBioscience) were used. In addition, a staining step was carried out according to the attached data sheet to the product.” for “sterilization.”

[6] = tested on: pancreas cancer cell Capan-1; assay: Test Example 9: PI staining (dead cell staining), FACS; type: cell-based, human; details: 24 hours
Method: (§3) For preparation of the glucose-containing medium, 4.75 g of Dulbecco's modified Eagle medium 2 (Nissui Pharmaceutical) was dissolved in water, added by 12.5 ml of 1M HEPES pH 7.4 (DOJINDO LABORATORIES, 342-01375), sterilized, added by 18.5 ml of 10% NAHCO3, 10 ml of L-glutamine (Sigma-Aldrich), 5 ml of Anti-Anti (Life technologies), 5 ml of MEM NON-ESSENTIAL AMINO ACID SOLUTION (Sigma-Aldrich) and 50 ml of FETAL BOVINE SERUM (Biowest) that was inactivated in a warm bath at 56° C. for 30 minutes, and finally filled up to 500 ml. The glucose inhibition medium was prepared by adding 2-Deoxy-Glucose (2-DG) (Tokyo Chemical industry) in 15 mM of final concentration to the glucose-containing medium. The medium containing 4 μM arctigenin was prepared by adding arctigenin ([…] Pharmaceutical) in 4 μM of final concentration to the glucose-containing medium or the glucose inhibition medium. The pancreas cancer cell Capan-1 (ATCC No. HTB-79) was seeded in a glucose-containing medium, incubated overnight and then incubated in each of a glucose-containing medium, a glucose inhibition medium, a glucose-containing medium containing 4 μM arctigenin and a glucose inhibition medium containing 4 μM arctigenin, or in 7 μM cisplatin (CDDP: Wako Pure Chemical Industries) for 24 hours. After collected cells, PI staining (dead cell staining) and cancer stem cell marker staining were carried out according to the usual method and an Analysis was carried out using flow cytometry (FACS). For the marker, triple positive of CD44, CD24 and ESA (CD326) which was reported as a stern cell marker of pancreas cancer was used.

[7] = tested on: CD44+ESA+CD24+ pancreas cancer stem cell (Capan-1); assay: Test Example 9: cancer stem cell marker staining (CD44, CD24, ESA), FACS; type: cell-based, human
Method: as §3

[8] = cited from earlier work
[9] = tested on: pancreas cancer cell line PANC-1; details: PANC-1 screening; cited from earlier work

## COc1cc(C[C@H]2C(=O)OC[C@@H]2Cc2ccc(OC)c(OC)c2)ccc1O [arctigenin]
[1]
  antitumor effect (size of subcutaneous tumor mass): antitumor effect was also obtained
[2]
  antitumor effect (size of subcutaneous tumor mass): antitumor effect was also obtained
[3]; glucose inhibition condition (20 mM 2-DG), 24 hours, FIG. 6, without arctigenin 68.53%
  cellular survival rate (PI staining): 35.71%
[3]; glucose inhibition condition, FIG. 7, without arctigenin 88.80%
  cellular survival rate (PI staining): 27.50%
[3]; glucose-containing condition, 24 hours, FIG. 6, without arctigenin 78.20%
  cellular survival rate (PI staining): 69.50%
[3]; glucose-containing condition, FIG. 7, without arctigenin 84.70%
  cellular survival rate (PI staining): 83.30%
[4]; glucose inhibition condition, without arctigenin 6.51%
  ratio of CD44+ESA+CD24+ cell in all analyzed cells: 0.98%
[4]; glucose inhibition condition, without arctigenin 651
  number of the survival of CD44+ESA+CD24+ cell: 98
[4]; glucose-containing condition, without arctigenin 4.41%
  ratio of CD44+ESA+CD24+ cell in all analyzed cells: 5.01%
[4]; glucose-containing condition, without arctigenin 441
  number of the survival of CD44+ESA+CD24+ cell: 501
[5]; glucose inhibition condition, without arctigenin 0.78%
  positive ratio of CD44+,c-MetHigh cell in all analyzed cells: 0.22%
[5]; glucose inhibition condition, without arctigenin 47
  number of the survival of CD44+,c-MetHigh cell: 13
[5]; glucose-containing condition, without arctigenin 0.63%
  positive ratio of CD44+,c-MetHigh cell in all analyzed cells: 0.52%
[5]; glucose-containing condition, without arctigenin 38
  number of the survival of CD44+,c-MetHigh cell: 31
[6]; 4 μM arctigenin, glucose inhibition condition (15 mM 2-DG), without arctigenin 79.10%
  cellular survival rate (PI staining): 48.73%
[6]; 4 μM arctigenin, glucose-containing condition, without arctigenin 67.57%
  cellular survival rate (PI staining): 72.80%
[7]; 4 μM arctigenin, glucose inhibition condition, without arctigenin 1.40%
  ratio of CD44+ESA+CD24+ cell in all analyzed cells: 0.24%
[7]; 4 μM arctigenin, glucose inhibition condition, without arctigenin 1.77%
  ratio of CD44+ESA+CD24+ cell analyzed in viable cells: 0.50%
[7]; 4 μM arctigenin, glucose inhibition condition, without arctigenin 105
  number of the survival of CD44+ESA+CD24+ cell: 18
[7]; 4 μM arctigenin, glucose-containing condition, without arctigenin 0.87%
  ratio of CD44+ESA+CD24+ cell in all analyzed cells: 1.04%
[7]; 4 μM arctigenin, glucose-containing condition, without arctigenin 1.28%
  ratio of CD44+ESA+CD24+ cell analyzed in viable cells: 1.43%
[7]; 4 μM arctigenin, glucose-containing condition, without arctigenin 65
  number of the survival of CD44+ESA+CD24+ cell: 78
[8]
  solubility in water: hardly soluble
[9]
  cancel the viability of tumor cells under undernutrition condition: effective

## N.N.[Cl][Pt][Cl] [cisplatin, reference compound]
[6]; 7 μM cisplatin
  cellular survival rate (PI staining): 58.08%
[7]; 7 μM cisplatin treatment
  number of the survival of CD44+ESA+CD24+ cell: 88
  ratio of CD44+ESA+CD24+ cell analyzed in viable cells: 2.02%
  ratio of CD44+ESA+CD24+ cell in all analyzed cells: 1.17%

## COc1ccc(C[C@H]2COC(=O)[C@@H]2Cc2ccc(O[C@@H]3O[C@H](CO)[C@@H](O)[C@H](O)[C@H]3O)c(OC)c2)cc1OC [arctiin]
[8]
  solubility in water: hardly soluble

From patent US9700572B2, “Anti-cancer agent” (priority 2012, dated 2017)
